Data on 1 compound can be found in patent US8470534B2, “Methods of predicting resistance or sensitivity to therapies for cancer” (priority 2006, dated 2013).

For experiment [1], the system named is MCF7 donor or siRb xenograft tumors. Description: Nude mouse xenograft therapeutic study. The class given is in vivo, nude mice. The conditions noted are these: for tumor response (size at 4-day intervals): E2 pellet removed. The method, then: The xenograft model system is then utilized to test the response of RB-deficient tumors to CDDP therapy. Tumors are developed in the flanks of mice by injecting MCF7 donor or siRb cells into the flanks of mice and implanting a […] (E2) pellet into the back. When tumors reached 100-110 mm^3, mice received 5 mg/kg CDDP every 4 days for 5 courses.
To assess the role of RB in the therapeutic response of MCF7 cells in vivo, the xenograft model is again employed. Upon the attainment of tumors of approximately 100-120 mm^3, mice are deprived of estrogen and treated with Tam. […] (FIG. 4F). […] All tumors are weighed upon exclusion, and RB-deficient tumors are more than 3 times heavier than control tumors following Tam therapy (FIG. 4G).
Five- to 8-week-old female ovariectomized athymic nude mice are anesthetized, and an E2 pellet (1.7 mg/pellet, 90-day release) or placebo is surgically implanted in the back. Following implantation, 200 μl of a PBS- and phenol red-free Matrigel matrix basement membrane, solution (3:1) containing 2×10^6 cells is injected subcutaneously into the flank, or contralaterally where noted. Tumor volume is measured with calipers every 4 days using the equation V=0.52 (width)^2 ×(length). In the therapeutic studies, when tumor volume reaches 100-120 mm^3, animals are placed into 1 of 3 therapeutic groups (each group containing at least 6 animals): control animals retaining the estrogen pellet, antiestrogen-treated animals, or CDDP-treated animals. Animals in the antiestrogen treatment group are anesthetized, the estrogen pellet is surgically removed, and a Tam pellet (5 mg/pellet, 60-day release) implanted. The CDDP-treated animals receive 5 mg/kg CDDP injected i.p. on a q4dx5 schedule (every 4 days for 5 courses). All animals are injected i.p. with 150 mg/kg BrdU (Sigma-Aldrich) 1 hour prior to euthanization. Xenograft tumors are weighed and fixed in 10% neutral buffered formalin, paraffin embedded, and cut into 5-ÿm sections. For immunohistochemical staining, sections are deparaffinized in xylene and rehydrated through a graded series of ethanol/water solutions. A BrdU detection kit is utilized as recommended by the manufacturer. BrdU incorporation is scored in a blinded manner, and at least 500 cells per section are counted from several random fields.

A further experiment has as its system MCF7 cells. Description: Cell growth assay in CDT/Tam over 9 days. The class given is cell-based, human. The method, then:
To understand the impact of RB deficiency on the response to hormone deprivation therapy, cells are cultured in CDT, CDT/Tam, or in the presence of pure antiestrogen, ICI182780 (CDT/ICI). Following treatment with these modalities, cells are labeled with BrdU to determine the influence of each agent on cell-cycle progression and the corresponding influence of RB knockdown on this response (FIG. 4B). These experiments are recapitulated in the polyclonal populations of T47D and Zr-75-1 donor and siRb88 cells (FIG. 4C). […] To elucidate the long-term growth effects of these therapies, cell proliferation assays are performed over 9 days. RB-proficient and -deficient MCF7 cells are seeded at equal densities and cultured in CDT/Tam (FIG. 4D). […] Similar results are evident in the same experiments with both T47D and Zr-75-1 RB-proficient and -deficient polyclonal pools (FIG. 4E).
(§1) To study the effect of estrogen depletion, cells are cultured for 72 hours in phenol red-free DMEM supplemented with 10% CDT serum with addition of 10^−9 M 4-HydroxyTam or 10^−6 M ICI where indicated. Cell growth assays are performed by trypsinizing cells and counting by trypan blue exclusion every 3 days.

For experiment [2], the system named is MCF7, T47D, and Zr-75-1 cells. The experiment can be described thus: Immunoblot of cyclin D1 and RB phosphorylation after hormone deprivation with Tam. The class given is cell-based, human. The following applies: wild-type cells; CDT serum in addition to Tam, 72 hours. As for the experimental part:
RB-deficient cells are able to bypass estrogen ablation therapy. To determine the effect of first-line breast cancer antiestrogen therapies on RB function, cells are exposed to several therapeutically relevant conditions. Specifically, wild-type MCF7, T47D, and Zr-75-1 cells are cultured in medium containing either FBS or charcoal dextran-treated (CDT) serum in addition to Tam, so as to antagonize ER function. […] U20S and SaOS2 cells are included as controls for RB and PI 61NK4a expression levels, respectively (FIG. 4a).
as §1
Cells are harvested by trypsinization and lysed in RIPA buffer. Equal amounts of protein, as determined by Bio-Rad DC assay, are resolved by SDS-PAGE. Specific proteins are detected by standard immunoblotting procedures using the following primary antibodies: p16INK4a (F-12; 1:500 dilution), cyclin D1 (H295), PCNA (pc10), cyclin E (HE12), cyclin A (C-19), MCM7 (141.2), E2F3 (C-18), cdk4 (H-22), lamin B (M-20), p21 (C-19), p53 (Ab-6; 1:500 dilution), RB phospho ser 780 (9307S; 1:500 dilution) and anti-RB (G3-245; 1:100 dilution). […]

`CC/C(=C(\c1ccccc1)c1ccc(OCCN(C)C)cc1)c1ccccc1` [Tam, tamoxifen]: the “tumor response (size at 4-day intervals)” value is reported as “did not regress” in experiment [1] (RB-deficient MCF7 tumors, Tam pellet) and “regressing to nearly immeasurable sizes” in experiment [1] (RB-proficient MCF7 tumors, Tam pellet 5 mg/pellet). Also, in experiment [1] (RB-deficient MCF7 tumors, therapy started at approximately 100-120 mm^3), the “tumor size reached in the presence of Tam” value is approximately 150 mm^3. Moreover, in experiment [1] (following Tam therapy), the “tumor weight, RB-deficient tumors relative to control tumors” value is given as “more than 3 times”. Besides, the entries for the “cell proliferation over 9 days” value in the experiment on MCF7 cells (MCF7 cells lacking RB cultured in CDT/Tam) and in the experiment with MCF7 cells (control (RB-proficient) MCF7 cells cultured in CDT/Tam) were “continue to proliferate” and “did not exhibit cell proliferation”, respectively. For the same compound, the “RB phosphorylation (immunoblot)” value in experiment [2] is “RB dephosphorylation”. Also, the “cyclin D1 levels (immunoblot)” value in experiment [2] was “cyclin D1 levels decreased”.
